According to patent US20260315564A1, “THE USE OF TP3 (THYMOPENTIN ANALOG) BY INCREASING THE ACTIVITY AND NUMBER OF T-CELLS INVOLVED IN THE DEFENSE MECHANISM OF THE IMMUNE SYSTEM OF MAMMALS, FOR THE PREVENTION OR TREATMENT OF DISEASES TO EXTEND THE AVERAGE LIFESPAN” (priority 2023, published 2026):
Marks after values point to notes of the source that are not given here. Residues, ends and D or L forms follow the SMILES beside them.

How the values were obtained:
[1] = system: tumour patients (metastatic melanoma); conditions: 26 studies, 2,736 patients, in words, cited from earlier work
[2] = system: PFC; assay: PFC cell count in aged mice; assay type: in vivo, aged mice (Balb/c); conditions: first value column under head 'PFC IgM/logx^2'; aged mice 18 months old; n = 8/group; young control 6.3, aged 3.7
Method: 1.3./Determination of the number of plaque-forming cells (PFC) (using rat spleen cells) The chopped splenocytes were placed in a culture medium (Parker 199) and then shaken with a shaker for 1 minute. The cells were suctioned from the surface of the rapidly settling tissue debris. Red blood cells were removed osmotically. Cell suspensions were adjusted to 107/ml. The cell suspensions were mixed with a 15% BVVT cell suspension in a ratio of 2:1. PFC was determined with the mixture using a modified chamber technique according to Channingham et al., 1966). Before filling the chamber, 50 μl of fresh diluted guinea pig serum (1:20) was added. The chambers (2-2/slide) were incubated (370C 45′) after sealing with paraffin, the formed plaques were counted under a microscope (at 400× magnification) within 2 hours Marker tests related to the rejection reaction of an adult thymus-depleted mouse skin graft 1.4./Rejection of skin transplants in nude mice after treatment with TP fragments (Snell et al., Transplantation 5, 492, 1967).
TP effect on antibody production and PFC cell count in aged mice (Balb/c)

In the case of `CC(C)[C@H](NC(=O)[C@H](CC(=O)O)NC(=O)[C@H](CCCCN)NC(=O)[C@@H](N)CCCN=C(N)N)C(=O)N[C@@H](Cc1ccc(O)cc1)C(=O)O` [TP5] (H-RKDVY-OH), the severe infections ([1]; in parallel with radiation or chemotherapy) is given as “promising results in reducing severe infections”, the number of survivors [1] is given as “not significantly affected” and the PFC [2] is given as 6.1*.
